# Values quoted from earlier work in patent publication US5786344A, “Camptothecin drug combinations and methods with reduced side effects” (priority 1995, dated 1998).
# Entries after “also recorded” stand apart in the source; their conditions may differ. Structures can show the parent of a compound that is named as a salt. Where two headings read alike, the source gives them in different places.
# Experiments:
# [1] = system: multidrug resistant (MDR) cells; settings: cited from earlier work
# p-glycoprotein = settings: cited from earlier work; for inhibition of photoaffinity labeling of p-glycoprotein: photolabeling
# [2] = cited from earlier work; for plasma concentration: single dose 600 mg
# plasma proteins = settings: cited from earlier work
# [3] = cited from earlier work
# [4] = listed as Trifluoperazine, dihydrochloride
smiles,measurement,setting,value
CCN(CC)CCCC(C)Nc1ccnc2cc(Cl)ccc12 (stereo not drawn) [Chloroquine],reversal of drug resistance,[1],partially reverses drug resistance
"COc1ccc([C@@H]2Sc3ccccc3N(CCN(C)C)C(=O)[C@@H]2OC(C)=O)cc1 [Diltiazem, benzothiazepin-4(5H)-one, 3-(acetyloxy)-5-[2-(dimethylamino)ethyl]-2,3-dihydro-2-(4-methoxyphenyl)-,(+) -cis-, monohydrochloride]",inhibition of / interaction with p-glycoprotein,p-glycoprotein,p-glycoprotein inhibitor
same,bioavailability / dose reaching the systemic circulation,"[2]; human, in vivo, po",40-60%
same,oral absorption,"[2]; human, in vivo, po",80%
same,excreted unchanged (urine),"[2]; human, in vivo",Less than 4%
same,half-life,"[2]; human, in vivo",about 4 hr
same,plasma protein binding,plasma proteins; plasma,70-80%
OCCN1CCN(CCCN2c3ccccc3Sc3ccc(C(F)(F)F)cc32)CC1 [Fluphenazine hydrochloride],oral absorption,[2]; oral,absorbed rapidly
same,onset of action,"[3]; human, in vivo",≤ 1 h
same,potency relative to chlorpromazine / other phenothiazines,"[3]; human, in vivo",more potent
same,duration of action,[3]; oral or intramuscular,6 h
Cc1ccc(C)c(OCCCC(C)(C)C(=O)O)c1 [Gemfibrozil],plasma concentration,[2]; after 2 hours,about 15 μg/ml
same,plasma concentration,[2]; after 9 hours,~5000 ng/mL
same,potency relative to clofibrate,"[3]; human, in vivo",more potent than clofibrate
"CCOC(=O)C1=C(C)NC(C)=C(C(=O)OC)C1c1cccc([N+](=O)[O-])c1 (stereo not drawn) [Nitrendipine, 3,5-Pyridinedicarboxylic acid, 1,4-dihydro-2,6-dimethyl-4-(3-nitrophenyl)-, ethyl methyl ester]",bioavailability / dose reaching the systemic circulation,"[2]; human, in vivo, po",10-22%
same,"half-life, average or usual","[2]; human, in vivo",~12 h
same,plasma protein binding,plasma proteins; plasma,About 98%
CC(C)NCC(O)COc1cccc2ccccc12 (stereo not drawn) [Propranolol],reversal of drug resistance,[1],partially reverse drug resistance
same,bioavailability / dose reaching the systemic circulation,"[2]; human, in vivo, po",about 25%
same,inter-individual variability in plasma concentrations,"[2]; human, in vivo, po",approximately 20 fold
same,CNS / blood-brain barrier penetration,"[2]; human, in vivo",readily enters the CNS
same,volume of distribution,"[2]; human, in vivo",4 L/kg
same,oral absorption,[2]; oral,almost complete absorbed
same,plasma protein binding,plasma proteins; plasma,Approximately 90%
"CC(C)(C)c1ccc(C(O)CCCN2CCC(C(O)(c3ccccc3)c3ccccc3)CC2)cc1 (stereo not drawn) [Terfenadine, 1-Piperidinebutanol, α-[4-(1,1-dimethylethyl)phenyl]-4-(hydroxydiphenylmethyl)-]",drug accumulation and efflux in MDR lines,[1]; MDR lines,augments the accumulation of doxorubicin and inhibits the effluxof rhodamine 123
same,drug accumulation or efflux in sensitive cells,[1]; sensitive cells,no effect
same,peak plasma levels,"[2]; human, in vivo, po",1.5 to 4.5 ng/mL
same,distribution half-life,"[2]; human, in vivo",3.5 h
same,half-life,"[2]; human, in vivo",16 to 23 h
same,oral absorption,[2]; oral,absorbed rapidly and almost completely
same,clinical toxicity,"[3]; human, in vivo",relatively low toxicity profile
same,plasma protein binding,plasma proteins; plasma,97%
"CSc1ccc2c(c1)N(CCC1CCCCN1C)c1ccccc1S2 (stereo not drawn) [Thioridazine, 10H-Phenothiazine, 10-[2-(1-methyl-2-piperidinyl)ethyl]-2-(methylthio)-]","half-life, early phase","[2]; human, in vivo",4 to 10 h
same,"half-life, late phase","[2]; human, in vivo",26 to 36 h
same,plasma protein binding,plasma proteins; plasma,96-99%
C[C@@H]1C[C@H]2[C@@H]3CCC4=CC(=O)C=C[C@]4(C)C3=CC[C@]2(C)[C@H]1C(=O)CN1CCN(c2cc(N3CCCC3)nc(N3CCCC3)n2)CC1 [Tirilazad],inhibition of / interaction with p-glycoprotein,p-glycoprotein,potent inhibitors
same,inhibition of photoaffinity labeling of p-glycoprotein,p-glycoprotein,more effectively than does verapamil
same,sensitivity of nonresistant parental cells,[1]; nonresistant parental cells,does not change the sensitivity of nonresistant parental cells
same,sensitization of resistant cells to killing by vinblastine,[1]; resistant cells,66 fold
"CN(C)CCCN1c2ccccc2Sc2ccc(C(F)(F)F)cc21 [Triflupromazine hydrochloride, 1OH-Phenothiazine-10-propanamine, N,N-dimethyl-2-(trifluoromethyl)-monohydrochloride]",potency relative to chlorpromazine / other phenothiazines,"[3]; human, in vivo",somewhat more potent
CC(C)(Oc1ccc(CCNC(=O)c2ccc(Cl)cc2)cc1)C(=O)O [bezafibrate],potency relative to clofibrate,"[3]; human, in vivo",more potent than clofibrate
CN(C)CCCN1c2ccccc2Sc2ccc(Cl)cc21 [chlorpromazine],inhibition of photoaffinity labeling of p-glycoprotein,p-glycoprotein,poor inhibitors
same,reversal of drug resistance,[1],effectively reverse multidrug resistance
CC(C)(Oc1ccc(C2CC2(Cl)Cl)cc1)C(=O)O (stereo not drawn) [ciprofibrate],potency relative to clofibrate,"[3]; human, in vivo",more potent than clofibrate
OCCN1CCN(CC/C=C2/c3ccccc3Sc3ccc(C(F)(F)F)cc32)CC1 [cis-flupenthixol],reversal of drug resistance,[1],reversed cellular resistance to various drugs only in p-glycoprotein expressing cell lines
CC(C)(Oc1ccc(Cl)cc1)C(=O)O [clofibric acid],fraction metabolized,"[2]; human, in vivo",About 60%
same,half-life,"[2]; human, in vivo",6 to 25 h
same,half-life in anuria,"[2]; human, in vivo",over 100 hr
same,"half-life, average or usual","[2]; human, in vivo",11 h
same,plasma protein binding,plasma proteins,bound strongly to plasma proteins
CC(C)OC(=O)C(C)(C)Oc1ccc(C(=O)c2ccc(Cl)cc2)cc1 [fenofibrate],potency relative to clofibrate,"[3]; human, in vivo",more potent than clofibrate
OCCN1CCN(CCCN2c3ccccc3Sc3ccc(C(F)(F)F)cc32)CC1 [fluphenazine],reversal of drug resistance,[1],reversed cellular resistance to various drugs only in p-glycoprotein expressing cell lines
OCCN1CCN(CC/C=C2\c3ccccc3Sc3ccc(C(F)(F)F)cc32)CC1 [trans-flupenthixol],reversal of drug resistance,[1],"reversed cellular resistance to various drugs only in p-glycoprotein expressing cell lines; also recorded: fully reversed resistance to doxorubicin, vincristine, and colchicine"
same,potency for reversing MDR relative to verapamil,[1]; equimolar concentrations,two- to three-fold more potent
same,clinical toxicity,"[3]; human, in vivo",apparent lack of clinical toxicity
"CN1CCN(CCCN2c3ccccc3Sc3ccc(C(F)(F)F)cc32)CC1 [trifluoperazine, 1OH-Phenothiazine, 10-[3-(4-methyl-1-piperazinyl)propyl]-2-(trifluoromethyl)-, dihydrochloride]",inhibition of photoaffinity labeling of p-glycoprotein,p-glycoprotein; dihydrochloride,poor inhibitors
same,inhibition of photoaffinity labeling of p-glycoprotein,p-glycoprotein; [4],without inhibiting photoaffinity labeling
same,reversal of drug resistance,[1]; dihydrochloride,effectively reverse multidrug resistance
same,reversal of drug resistance,[1]; [4],reverses multidrug resistance
CC[C@]1(O)C[C@H]2CN(CCc3c([nH]c4ccccc34)[C@@](C(=O)OC)(c3cc4c(cc3OC)N(C=O)[C@H]3[C@@](O)(C(=O)OC)[C@H](OC(C)=O)[C@]5(CC)C=CCN6CC[C@]43[C@@H]65)C2)C1 [vincristine],inhibition of p-glycoprotein,p-glycoprotein; 10 μM,95%
same,inhibition of / interaction with p-glycoprotein,p-glycoprotein,p-glycoprotein inhibitor
same,p-glycoprotein inhibition relative to comparator,"p-glycoprotein; vs verapamil, cyclosporine A, progesterone or anthracycline analogues",more potent than anthracycline analogues
same,oral absorption,[2]; oral,Unpredictable absorption
same,half-life,[2]; plasma or terminal half-life,about 24 hours
same,Cmax,"[2]; read-out: peak concentration in plasma, usual clinical doses",~400 nM
same,plasma protein binding,plasma proteins,bind to plasma proteins
